Measurements taken from patent US20120270237A9, “METHODS FOR THE IDENTIFICATION OF KINASE INTERACTING MOLECULES AND FOR THE PURIFICATION OF KINASE PROTEINS” (Cellzone AG, priority 2009, published 2012).

Assays:
Test in all cases: Kinobeads competition binding, HL60 cell lysate
Parameters in all cases: endogenous in cells
Conditions in all cases: 10 μM free compound
[1] = molecular target: TGFbR1 (Homo sapiens, UniProt P36897)
Outline: (§1)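 Target occupancy is inferred from reduced capture of each kinase on compound-coupled beads after lysate pre-treatment with 10 μM free compound, relative to a DMSO lysate. Quantitation used isobaric iTRAQ tags and tandem MS.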

[2] = molecular target: JAK1 (Homo sapiens, UniProt P23458)
Outline: as §1

[3] = molecular target: T1, NEK3 (Homo sapiens, UniProt P51956)
T1 sequence (P51956 1-506): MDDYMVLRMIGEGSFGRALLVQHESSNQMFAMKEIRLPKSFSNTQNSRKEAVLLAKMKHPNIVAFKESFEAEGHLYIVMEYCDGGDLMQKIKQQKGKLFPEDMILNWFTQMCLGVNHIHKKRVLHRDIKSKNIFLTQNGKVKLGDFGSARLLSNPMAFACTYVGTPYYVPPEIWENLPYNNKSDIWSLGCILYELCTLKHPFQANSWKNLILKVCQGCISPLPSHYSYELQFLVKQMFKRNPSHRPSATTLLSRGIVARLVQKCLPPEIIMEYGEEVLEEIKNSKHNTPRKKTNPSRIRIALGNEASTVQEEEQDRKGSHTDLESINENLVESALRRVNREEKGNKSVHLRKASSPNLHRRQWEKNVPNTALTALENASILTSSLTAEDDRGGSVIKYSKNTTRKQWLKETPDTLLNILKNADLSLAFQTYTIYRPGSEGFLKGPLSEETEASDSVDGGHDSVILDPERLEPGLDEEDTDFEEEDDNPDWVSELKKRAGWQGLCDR
Outline: as §1

[4] = molecular target: Wee1 (Homo sapiens, UniProt P30291)
Outline: as §1

[5] = molecular target: CK2a2 (Homo sapiens, UniProt P19784)
Outline: as §1

[6] = molecular target: PYK2 (Homo sapiens, UniProt Q14289)
Outline: as §1

[7] = molecular target: CaMK2d (Homo sapiens, UniProt Q13557)
Outline: as §1

[8] = molecular target: T2, PHKg2 (Homo sapiens, UniProt P15735)
T2 sequence (P15735 1-406): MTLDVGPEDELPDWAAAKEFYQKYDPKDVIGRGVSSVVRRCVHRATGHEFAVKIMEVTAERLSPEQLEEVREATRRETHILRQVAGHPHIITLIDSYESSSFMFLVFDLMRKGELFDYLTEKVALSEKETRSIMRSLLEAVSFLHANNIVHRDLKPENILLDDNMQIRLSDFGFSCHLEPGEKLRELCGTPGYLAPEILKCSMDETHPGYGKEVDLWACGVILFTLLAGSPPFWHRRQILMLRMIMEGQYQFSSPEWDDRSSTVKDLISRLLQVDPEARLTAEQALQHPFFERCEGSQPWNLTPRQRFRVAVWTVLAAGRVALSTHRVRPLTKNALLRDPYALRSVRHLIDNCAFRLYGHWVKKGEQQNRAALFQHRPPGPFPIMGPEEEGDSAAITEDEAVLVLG
Outline: as §1

[9] = molecular target: PAK4 (Homo sapiens, UniProt O96013)
Outline: as §1

[10] = molecular target: MLK3 (Homo sapiens, UniProt Q16584)
Outline: as §1

[11] = molecular target: PLK1 (Homo sapiens, UniProt P53350)
Outline: as §1

inhibition at 10 µM [1]: 95.6%
Competition % [2]: 97.8%
inhibition at 10 µM [3]: 97%
inhibition at 10 µM [4]: 98.2%
inhibition at 10 µM [5]: 97.7%
inhibition at 10 µM [6]: 95.7%
inhibition at 10 µM [7]: 90.4%
inhibition at 10 µM [8]: 96.6%
inhibition at 10 µM [9]: 97.5%
Competition % [10]: 96.5%
inhibition at 10 µM [11]: 97.8%
SMILES: CS(=O)(=O)Nc1ccccc1Nc1nc(Nc2cccc(OCCN)c2)ncc1Cl [CZC31326, N-(2-(2-(3-(2-aminoethoxy)phenylamino)-5-chloropyrimidin-4-ylamino)phenyl)methanesulfonamide]
